Earlier results, collected in patent US8461314B2, “Nucleic acid sequences for biosynthesis of non-MccJ25-related lariat peptides” (Rutgers, The State University of New Jersey, priority 2007, dated 2013).

How the values were obtained:
[1] = target: Gram-negative bacterial RNA polymerase (Escherichia coli, UniProt P0A8T7+P0A8V2)
[2] = target: Gram-positive bacterial RNAP (Bacillus subtilis, UniProt P37870+P37871)
[3] = target: Thermus-Deinoccoccus bacterial RNAP (Thermus thermophilus, UniProt Q8RQE8+Q8RQE9); conditions: including, for example
[4] = target: bacterial RNA polymerase (Escherichia coli, UniProt P0A8T7+P0A8V2)
[5] = test system: Escherchia coli
[6] = test system: Salmonella sp.
[7] = test system: Gram-positive bacterial; conditions: Gram-positive bacteria
[8] = test system: Thermococcus-Deinococcus bacterial growth; conditions: Thermococcus-Deinococcus bacteria
[9] = test system: RNA polymerase derivatives resistant to rifamycins
[10] = tested thermal and chemical denaturants
[11] = test system: mesophilic endo- and exopeptidease

bacterial RNA polymerase, sequence (P0A800 whole entry): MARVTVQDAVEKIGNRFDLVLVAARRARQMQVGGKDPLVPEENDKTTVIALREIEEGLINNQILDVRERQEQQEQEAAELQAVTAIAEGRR
bacterial RNA polymerase, sequence (P0A7Z4 whole entry, further chain): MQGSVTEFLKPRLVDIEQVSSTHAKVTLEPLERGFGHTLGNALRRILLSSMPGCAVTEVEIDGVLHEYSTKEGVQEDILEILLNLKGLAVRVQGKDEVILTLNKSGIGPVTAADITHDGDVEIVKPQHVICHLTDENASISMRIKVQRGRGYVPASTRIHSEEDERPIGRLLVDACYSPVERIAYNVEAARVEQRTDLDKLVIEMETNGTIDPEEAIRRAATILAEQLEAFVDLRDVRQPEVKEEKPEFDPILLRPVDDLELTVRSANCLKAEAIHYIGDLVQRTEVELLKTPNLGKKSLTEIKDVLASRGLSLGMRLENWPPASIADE
bacterial RNA polymerase, sequence (P0A8T7 whole entry): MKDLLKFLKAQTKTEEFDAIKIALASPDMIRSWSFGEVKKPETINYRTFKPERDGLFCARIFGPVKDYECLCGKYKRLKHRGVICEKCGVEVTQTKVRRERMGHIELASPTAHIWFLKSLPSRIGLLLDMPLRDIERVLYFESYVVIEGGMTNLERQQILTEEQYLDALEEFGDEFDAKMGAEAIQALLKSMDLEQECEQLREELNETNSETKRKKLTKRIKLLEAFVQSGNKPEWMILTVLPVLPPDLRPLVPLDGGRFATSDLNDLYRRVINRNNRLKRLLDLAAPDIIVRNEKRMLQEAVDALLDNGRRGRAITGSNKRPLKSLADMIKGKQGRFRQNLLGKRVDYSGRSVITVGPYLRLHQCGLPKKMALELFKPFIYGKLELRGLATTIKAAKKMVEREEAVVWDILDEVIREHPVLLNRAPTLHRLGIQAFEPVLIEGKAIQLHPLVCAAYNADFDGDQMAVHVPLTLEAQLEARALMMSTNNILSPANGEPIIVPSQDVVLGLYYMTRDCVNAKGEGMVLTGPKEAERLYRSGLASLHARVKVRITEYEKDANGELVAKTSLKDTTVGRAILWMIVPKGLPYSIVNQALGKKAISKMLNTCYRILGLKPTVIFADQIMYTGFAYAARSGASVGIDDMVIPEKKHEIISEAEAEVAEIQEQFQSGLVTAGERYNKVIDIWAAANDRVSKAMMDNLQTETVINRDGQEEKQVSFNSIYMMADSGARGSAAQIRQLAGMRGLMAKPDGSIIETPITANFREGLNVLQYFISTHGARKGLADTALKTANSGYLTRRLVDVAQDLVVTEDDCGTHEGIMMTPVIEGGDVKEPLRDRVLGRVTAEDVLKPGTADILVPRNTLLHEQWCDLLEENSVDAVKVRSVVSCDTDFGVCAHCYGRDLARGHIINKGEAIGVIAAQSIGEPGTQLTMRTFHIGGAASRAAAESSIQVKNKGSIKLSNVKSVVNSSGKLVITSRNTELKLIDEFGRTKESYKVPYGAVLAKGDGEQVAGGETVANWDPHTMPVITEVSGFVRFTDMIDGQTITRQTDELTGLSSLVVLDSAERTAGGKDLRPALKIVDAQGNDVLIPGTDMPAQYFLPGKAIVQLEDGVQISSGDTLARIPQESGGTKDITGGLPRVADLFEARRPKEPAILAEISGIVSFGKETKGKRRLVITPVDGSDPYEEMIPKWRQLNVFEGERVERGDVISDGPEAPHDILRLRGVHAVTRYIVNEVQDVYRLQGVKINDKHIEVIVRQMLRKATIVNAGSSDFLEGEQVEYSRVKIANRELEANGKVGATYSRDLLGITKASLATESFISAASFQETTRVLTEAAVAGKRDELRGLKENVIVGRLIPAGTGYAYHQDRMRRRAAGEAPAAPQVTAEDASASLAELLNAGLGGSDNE
bacterial RNA polymerase, sequence (P0A8V2 whole entry): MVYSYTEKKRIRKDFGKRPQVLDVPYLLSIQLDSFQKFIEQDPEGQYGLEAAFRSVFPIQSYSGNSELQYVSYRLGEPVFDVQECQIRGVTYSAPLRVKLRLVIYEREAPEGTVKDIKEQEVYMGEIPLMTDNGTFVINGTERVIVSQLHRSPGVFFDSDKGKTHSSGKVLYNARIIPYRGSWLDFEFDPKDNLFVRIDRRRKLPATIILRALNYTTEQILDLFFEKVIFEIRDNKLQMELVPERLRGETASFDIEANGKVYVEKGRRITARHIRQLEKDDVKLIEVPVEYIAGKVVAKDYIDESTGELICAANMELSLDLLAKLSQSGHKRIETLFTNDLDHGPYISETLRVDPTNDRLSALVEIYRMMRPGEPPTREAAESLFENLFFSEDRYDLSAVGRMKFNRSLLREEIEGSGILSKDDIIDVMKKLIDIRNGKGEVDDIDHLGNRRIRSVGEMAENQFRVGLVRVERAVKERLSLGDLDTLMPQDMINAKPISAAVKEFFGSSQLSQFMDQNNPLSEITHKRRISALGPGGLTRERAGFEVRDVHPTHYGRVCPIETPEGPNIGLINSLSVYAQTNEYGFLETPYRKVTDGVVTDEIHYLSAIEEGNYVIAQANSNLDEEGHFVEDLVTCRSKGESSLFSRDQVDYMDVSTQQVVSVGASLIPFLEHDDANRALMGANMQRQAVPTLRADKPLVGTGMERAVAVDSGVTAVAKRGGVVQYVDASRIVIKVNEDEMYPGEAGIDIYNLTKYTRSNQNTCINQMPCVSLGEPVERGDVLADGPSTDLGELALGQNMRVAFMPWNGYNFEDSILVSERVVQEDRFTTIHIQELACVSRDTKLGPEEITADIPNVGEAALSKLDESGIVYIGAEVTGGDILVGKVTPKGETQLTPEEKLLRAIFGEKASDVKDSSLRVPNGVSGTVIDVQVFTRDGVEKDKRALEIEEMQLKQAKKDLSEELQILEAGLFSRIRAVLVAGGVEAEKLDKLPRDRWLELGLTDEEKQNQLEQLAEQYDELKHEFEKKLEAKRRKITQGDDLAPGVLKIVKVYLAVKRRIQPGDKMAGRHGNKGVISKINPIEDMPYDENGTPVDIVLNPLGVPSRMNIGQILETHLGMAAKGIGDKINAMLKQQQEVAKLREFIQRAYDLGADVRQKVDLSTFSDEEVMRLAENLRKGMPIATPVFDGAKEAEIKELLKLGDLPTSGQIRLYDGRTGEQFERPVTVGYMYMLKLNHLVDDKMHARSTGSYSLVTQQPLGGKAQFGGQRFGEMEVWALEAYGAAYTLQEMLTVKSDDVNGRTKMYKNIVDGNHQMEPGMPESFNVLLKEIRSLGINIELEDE

Row | Substance | inhibition of Gram-negative bacterial RNA polymerase [1] | inhibition of Gram-positive bacterial RNAP [2] | inhibition of Thermus-Deinoccoccus bacterial RNAP [3] | inhibition of bacterial RNA polymerase [4] | antibacterial activity [5] | antibacterial activity [6] | inhibition of bacterial growth [7] | inhibition of bacterial growth [8] | ability to inhibit RNA polymerase derivatives resistant to rifamycins [9] | cross-resistance with rifamycins [9] | resistance to denaturation [10] | resistance to proteolysis [11]
1 | propeptin | inhibit | inhibit | inhibit | inhibit | – | – | – | – | – | – | – | –
2 | Gly1-Gly2-Ala3-Gly4-His5-Pro6-Val7-Glu8-Tyr9-Phe10-Val11-Gly12-Ile13-Gly14-Thr15-Pro16-Ile17-Ser18-Phe19-Tyr20-Gly21 cyclic(8→1) peptide [MccJ25] | inhibits | does not inhibit | does not inhibit | inhibits | exhibits antibacterial activity | exhibits antibacterial activity | not inhibit | not inhibit | retains full ability to inhibit | no cross-resistance | complete resistance | complete resistance
